Results as given in patent US9617251B2, “Indanylaminopyridylcyclopropanecarboxylic acids, pharmaceutical compositions and uses thereof” (BOEHRINGER INGELHEIM INTERNATIONAL GMBH, priority 2015, dated 2017).
Converted amounts (≈) assume the structure as drawn.

Tests used:
[1] = target: human GPR40 receptor (Homo sapiens, UniProt O14842); test: IP1 accumulation measurements using the IPOne assay system (1321N1 cells stably expressing human GPR40 receptor); assay type: cell-based; conditions: 1321N1 cells expressing human GPR40, 1 h stimulation at 37° C.
Outline: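 Cells were stimulated with compounds for 1 h at 37 °C in HEPES-buffered stimulation buffer containing 50 mM LiCl, pH 7.4. IP1 was then detected by HTRF (IP1-d2/anti-IP1 cryptate, 1 h at room temperature), and 665/615 ratios were converted using an IP1 reference curve, with pEC50 obtained by variable-slope sigmoidal fitting.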

[2] = Chemical stability: degradation kinetics in acidic aqueous media (pH ca. 1.2), HPLC recovery; assay type: physicochemical; conditions: pH value of ca. 1.2 (acetonitrile/0.1 M aqueous HCl 2:3), 37° C.
Description: Degradation kinetics is used to simulate chemical stability of compounds in the acidic part of the gastro intestinal tract. […] Their application as medical drugs to treat human diseases is therefore less restricted and troublesome.
The chemical stability of the compounds of the invention at pH value of ca. 1.2 is determined as follows:
Compound is dissolved in an HPLC vial either in a mixture of acetonitrile/0.1 M aqueous HCl (2:3; pH ca. 1.2) or in a mixture of acetonitrile/McIlvaine buffer pH 7.4 (2:3) to get a concentration of approximately 0.25 mg/ml. The vial was then transferred into an HPLC autosampler system and maintained at a temperature of 37° C. A first sample is taken and injected immediately into a standard HPLC system with a UV DAD detector. Further samples are injected after 2, 4, 6, 8 and 10 hours. Amount of degraded compound is measured by determining the recovery rate of compound [%] for each injection using an HPLC standard gradient method. Therefore the peak area of the main peak for the first injection (AUt0) is determined and set as 100%. Peak area of the main peak is determined also for the further injections (AUtn, n=2, 4, 6, 8, 10) and expressed as fraction of (AUt0)/(AUtn, n=2, 4, 6, 8, 10) [%].

[3] = Aqueous solubility in buffer vs acetonitrile/water (1/1), LC-UV; assay type: physicochemical; conditions: kinetic from dmso stock, buffer pH 2.2, 24 h shaking, 2.5% DMSO
Outline: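 Aliquots of 10 mM DMSO stock diluted into buffer or acetonitrile/water (1/1), shaken 24 h, filtered and quantified by LC-UV; buffer amount compared with acetonitrile/water amount. Range 0.001-0.125 mg/mL at 2.5% DMSO; ">" marks over 90% dissolved.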

[4] = target: T1, cytochrome P450 2C8-isoenzyme (Homo sapiens, UniProt P10632); test: Inhibition of CYP-2C8 (deethylation of amodiaquine, human liver microsomes); assay type: in vitro ADME; conditions: CYP-2C8, human liver microsomes, amodiaquine 1 μM, 37° C.
T1 construct: from tissue; host or cells: human liver microsomes
T1 sequence (P10632 1-490): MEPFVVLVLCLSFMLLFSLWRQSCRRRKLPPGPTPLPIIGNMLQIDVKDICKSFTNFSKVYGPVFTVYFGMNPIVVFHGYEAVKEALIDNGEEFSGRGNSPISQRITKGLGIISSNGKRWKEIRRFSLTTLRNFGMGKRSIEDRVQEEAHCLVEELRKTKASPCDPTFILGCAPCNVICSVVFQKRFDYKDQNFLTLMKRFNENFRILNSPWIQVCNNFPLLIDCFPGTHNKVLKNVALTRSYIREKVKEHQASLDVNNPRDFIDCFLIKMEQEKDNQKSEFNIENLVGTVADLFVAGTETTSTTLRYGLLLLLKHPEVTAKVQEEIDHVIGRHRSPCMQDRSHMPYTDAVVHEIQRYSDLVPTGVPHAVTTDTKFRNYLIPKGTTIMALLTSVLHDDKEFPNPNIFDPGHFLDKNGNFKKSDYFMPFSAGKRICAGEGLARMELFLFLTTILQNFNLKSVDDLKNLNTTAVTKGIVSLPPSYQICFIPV
Outline: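 Amodiaquine deethylation (1 μM substrate) was measured at 37 °C in human liver microsomes (0.05 mg/mL), 0.1 M Tris, 5 mM MgCl2, and started with 1 mM NADPH. Desethylamodiaquine was quantified by LC-MS/MS against a d5 internal standard. IC50 came from five concentrations, typically top 10–50 μM with 1:4 dilutions, fitted by least squares to a slope-and-background model.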

[5] = target: T2, cytochrome P450 2C9-isoenzyme (Homo sapiens, UniProt P11712); test: Inhibition of CYP-2C9 (hydroxylation of diclofenac, human liver microsomes); assay type: in vitro ADME; conditions: CYP-2C9, human liver microsomes, diclofenac 10 μM, 37° C.
T2 construct: from tissue; host or cells: human liver microsomes
Outline: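 Human liver microsomes (0.1 mg/mL) in 0.1 M TRIS, 5 mM MgCl2, 10 μM diclofenac, 37 °C, duplicate five-point compound series; started with 1 mM NADPH, quenched by cooling and acetonitrile. Hydroxydiclofenac quantified by LC-MS/MS against 13C6 internal standard; IC50 by least-squares fit with slope and background terms.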

T2 sequence (P11712 whole entry): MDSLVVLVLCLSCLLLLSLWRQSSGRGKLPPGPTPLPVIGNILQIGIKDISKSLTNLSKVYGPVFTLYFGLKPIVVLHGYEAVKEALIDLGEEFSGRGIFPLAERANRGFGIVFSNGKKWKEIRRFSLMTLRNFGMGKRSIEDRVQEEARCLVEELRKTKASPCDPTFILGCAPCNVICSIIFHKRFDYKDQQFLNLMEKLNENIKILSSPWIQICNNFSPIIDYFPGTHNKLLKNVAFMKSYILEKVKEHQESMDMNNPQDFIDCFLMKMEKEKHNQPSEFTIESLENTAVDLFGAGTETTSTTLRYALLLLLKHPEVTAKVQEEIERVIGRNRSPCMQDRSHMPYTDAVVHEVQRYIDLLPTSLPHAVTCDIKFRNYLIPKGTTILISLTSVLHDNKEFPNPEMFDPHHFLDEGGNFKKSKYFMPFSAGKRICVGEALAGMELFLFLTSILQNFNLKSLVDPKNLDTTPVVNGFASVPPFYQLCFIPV
Sequence of human GPR40 receptor (O14842 whole entry): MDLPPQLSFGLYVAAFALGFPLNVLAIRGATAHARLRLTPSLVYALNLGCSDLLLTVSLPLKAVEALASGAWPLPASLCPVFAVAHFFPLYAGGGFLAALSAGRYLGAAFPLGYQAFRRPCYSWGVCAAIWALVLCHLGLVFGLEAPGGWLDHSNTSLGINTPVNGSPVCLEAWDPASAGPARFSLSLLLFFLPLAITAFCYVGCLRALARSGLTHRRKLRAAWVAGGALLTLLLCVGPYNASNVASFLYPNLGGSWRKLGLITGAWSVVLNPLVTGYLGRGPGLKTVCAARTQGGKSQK

Row | SMILES | EC50 [1] | Amount of degradation after 2 h [2] | solubility at 24 h [3] | IC50 [4] | IC50 [5]
1 | COc1cc(F)c(-c2ccc(F)c3c2CC[C@H]3Nc2ccc([C@H]3C[C@@H]3C(=O)O)cn2)c(F)c1 [Example 56] | 0.151 µM | <0.5% | 73 µg/mL (≈ 161 µM) | 33 µM | 28 µM
2 | Nc1cc(F)c(-c2ccc(F)c3c2CC[C@H]3Nc2ccc([C@H]3C[C@@H]3C(=O)O)cn2)c(F)c1 [Example 58] | 0.462 µM | <0.5% | 107 µg/mL (≈ 243 µM) | > 50 µM | > 50 µM
3 | Cc1cc(OCC2(O)CCOCC2)cc(C)c1-c1ccc(F)c2c1CC[C@H]2Nc1ccc([C@H]2C[C@@H]2C(=O)O)cn1 [Example 63] | 0.02 µM | <0.5% | 118 µg/mL (≈ 216 µM) | > 50 µM | > 50 µM
4 | CNC(=O)c1cc(C)c(-c2ccc(F)c3c2CC[C@H]3Nc2ccc([C@H]3C[C@@H]3C(=O)O)cn2)c(C)c1 [Example 66] | 0.039 µM | <1.0% | 115 µg/mL (≈ 243 µM) | > 50 µM | > 50 µM
5 | COc1cc(-c2cc(C)c(-c3ccc(F)c4c3CC[C@H]4Nc3ccc([C@H]4C[C@@H]4C(=O)O)cn3)c(C)c2)ccn1 [Example 72] | 0.006 µM | <0.5% | 101 µg/mL (≈ 193 µM) | 8 µM | 18 µM
6 | O=C(O)[C@H]1C[C@@H]1c1ccc(N[C@@H]2CCc3c(-c4ccccc4C(F)(F)F)ccc(F)c32)nc1 [Example 74] | 0.049 µM | <1.0% | 82 µg/mL (≈ 180 µM) | 21 µM | 14 µM
7 | Cc1cc(C(=O)N(C)C)cc(C)c1-c1ccc(F)c2c1CC[C@H]2Nc1ccc([C@H]2C[C@@H]2C(=O)O)cn1 [Example 75] | 0.186 µM | <0.5% | 117 µg/mL (≈ 240 µM) | > 50 µM | > 50 µM
